# Experimental data as given in patent publication US10154957B2, “Microneedle device having a peptide therapeutic agent and an amino acid and methods of making and using the same” (3M INNOVATIVE PROPERTIES COMPANY, priority 2011, dated 2018).
# Marks after values point to notes of the source that are not given here.
# Assay: Percent purity of PTHrP analogue in coating with varying His-HCl concentration, three storage conditions (HPLC)
# Type: physicochemical
# Details: peptide 10 mg/mL in PBS
# Experimental: The protein or polypeptide content in the formulation coated on the microneedle arrays was determined using an Agilent 1100 HPLC system (Agilent Technologies, Wilmington, Del.) equipped with a binary pump, well-plated thermostated autosampler, thermostated column compartment, and a diode array UV detector. A Zorbax 300SB-C8 column (Agilent Technologies, Wilmington, Del.) having a 5 μm particle size and 2.1×150 mm inner diameter was used for the separations. The column was maintained at 50° C. The mobile phase consisted of two eluents. Eluent A was 0.1% TFA (trifluoroacetic acid) in water and eluent B was 0.1% TFA in acetonitrile (Spectrum Chemical, New Brunswick, N.J.). A linear gradient from 80/20 to 50/50 (A/B) was applied over 30 minutes. The flow rate was 0.4 mL/minute and the UV detection wavelength was set at 214 nm. The total run time was 34 minutes and the sample injection volume was 15 μL.
# Five sample formulations were prepared containing 10 mg/mL of [Glu^22,25,Leu^23,28,31,Aib^29,Lys^26,30]hPTHrP(1-34)NH2 and varying concentrations of L-histidine monohydrochloride (His-HCl) in PBS. The concentrations of His-HCl in the sample formulations range from 1 mg/mL to 10 mg/mL. A control formulation was also prepared containing 10 mg/mL of [Glu^22,25,Leu^23,28,31,Aib^29,Lys^26,30]hPTHrP(1-34)NH2 in PBS. […] Microneedle arrays were coated with either the sample or the control formulations. The coating was applied by dropwise addition of 40 μL of the formulation to the portion of the array defined by the octagon shaped pattern of microneedles. The flood coated arrays (both sample and control formulation coated) were dried in an oven at 35° C. for 1.5 hours followed by 30° C. for 15 hours.
# After drying, the coated arrays were placed in a storage chamber that was maintained at one of three storage conditions: 40° C./96% RH (storage condition A); 25° C./60% RH (storage condition B); or 5° C./ambient RH. The [Glu^22,25,Leu^23,28,31,Aib^29,Lys^26,30]hPTHrP(1-34)NH2 content of the coated arrays was determined following storage in a chamber for 1 day, 3 days, 7 days, 14 days, 21 days, 28 days, and 2 months. The initial [Glu^22,25,Leu^23,28,31,Aib^29,Lys^26,30]hPTHrP(1-34)NH2 content was also determined using freshly coated arrays (both sample and control formulation coated). The arrays used to determine initial content were stored in a refrigerator at about 4° C. and analyzed within one day of being prepared. At the designated time point, an array was taken from the chamber and washed with PBS (3.5 mL) to remove the coating from the array. An aliquot of the resulting wash solution was analyzed for [Glu^22,25,Leu^23,28,31,Aib^29,Lys^26,30]hPTHrP(1-34)NH2 content using the HPLC method described above. The results were quantified against an external standard of [Glu^22,25,Leu^23,28,31,Aib^29,Lys^26,30]hPTHrP(1-34)NH2. At each time point, the percent purity of [Glu^22,25,Leu^23,28,31,Aib^29,Lys^26,30]hPTHrP(1-34)NH2 in the coating was determined by measuring the peak area for [Glu^22,25,Leu^23,28,31,Aib^29,Lys^26,30]hPTHrP(1-34)NH2 in the selected coating and dividing it by the total peak area measured for all [Glu^22,25,Leu^23,28,31,Aib^29,Lys^26,30]hPTHrP(1-34)NH2 related peaks.
substance,measurement,setting,value
"[Glu^22,25,Leu^23,28,31,Aib^29,Lys^26,30]hPTHrP(1-34)NH2","Percent Purity of [Glu^22,25, Leu^23,28,31, Aib^29, Lys^26,30]hPTHrP(1-34)NH2","Histidine-HCl 1 mg/mL, Storage Condition B (25° C./60% RH), 2 months",98.1%
same,"Percent Purity of [Glu^22,25, Leu^23,28,31, Aib^29, Lys^26,30]hPTHrP(1-34)NH2","Histidine-HCl 1 mg/mL, Storage Condition B (25° C./60% RH), Day 3",98.7%
same,"Percent Purity of [Glu^22,25, Leu^23,28,31, Aib^29, Lys^26,30]hPTHrP(1-34)NH2","Histidine-HCl 1 mg/mL, Storage Condition B (25° C./60% RH), Day 7",98.8%
same,"Percent Purity of [Glu^22,25, Leu^23,28,31, Aib^29, Lys^26,30]hPTHrP(1-34)NH2","Histidine-HCl 1 mg/mL, Storage Condition B (25° C./60% RH), Day 14",98.7%
same,"Percent Purity of [Glu^22,25, Leu^23,28,31, Aib^29, Lys^26,30]hPTHrP(1-34)NH2","Histidine-HCl 1 mg/mL, Storage Condition B (25° C./60% RH), Day 28",98.8%
same,"Percent Purity of [Glu^22,25, Leu^23,28,31, Aib^29, Lys^26,30]hPTHrP(1-34)NH2","Histidine-HCl 1 mg/mL, Storage Condition B (25° C./60% RH), Initial",99.0%
same,"Percent Purity of [Glu^22,25, Leu^23,28,31, Aib^29, Lys^26,30]hPTHrP(1-34)NH2","Histidine-HCl 2 mg/mL, Storage Condition A (40° C./96% RH), Day 1",98.4%
same,"Percent Purity of [Glu^22,25, Leu^23,28,31, Aib^29, Lys^26,30]hPTHrP(1-34)NH2","Histidine-HCl 2 mg/mL, Storage Condition A (40° C./96% RH), Day 3",97.5%
same,"Percent Purity of [Glu^22,25, Leu^23,28,31, Aib^29, Lys^26,30]hPTHrP(1-34)NH2","Histidine-HCl 2 mg/mL, Storage Condition A (40° C./96% RH), Day 7",83.2%
same,"Percent Purity of [Glu^22,25, Leu^23,28,31, Aib^29, Lys^26,30]hPTHrP(1-34)NH2","Histidine-HCl 2 mg/mL, Storage Condition A (40° C./96% RH), Day 14",50.0%
same,"Percent Purity of [Glu^22,25, Leu^23,28,31, Aib^29, Lys^26,30]hPTHrP(1-34)NH2","Histidine-HCl 2 mg/mL, Storage Condition A (40° C./96% RH), Day 21, the sample for analysis contained insoluble impurities",36.8^(a) percent
same,"Percent Purity of [Glu^22,25, Leu^23,28,31, Aib^29, Lys^26,30]hPTHrP(1-34)NH2","Histidine-HCl 2 mg/mL, Storage Condition A (40° C./96% RH), Initial",99.0%
same,"Percent Purity of [Glu^22,25, Leu^23,28,31, Aib^29, Lys^26,30]hPTHrP(1-34)NH2","Histidine-HCl 2 mg/mL, Storage Condition B (25° C./60% RH), 2 months",98.1%
same,"Percent Purity of [Glu^22,25, Leu^23,28,31, Aib^29, Lys^26,30]hPTHrP(1-34)NH2","Histidine-HCl 2 mg/mL, Storage Condition B (25° C./60% RH), Day 3",98.8%
same,"Percent Purity of [Glu^22,25, Leu^23,28,31, Aib^29, Lys^26,30]hPTHrP(1-34)NH2","Histidine-HCl 2 mg/mL, Storage Condition B (25° C./60% RH), Day 7",98.8%
same,"Percent Purity of [Glu^22,25, Leu^23,28,31, Aib^29, Lys^26,30]hPTHrP(1-34)NH2","Histidine-HCl 2 mg/mL, Storage Condition B (25° C./60% RH), Day 14",98.8%
same,"Percent Purity of [Glu^22,25, Leu^23,28,31, Aib^29, Lys^26,30]hPTHrP(1-34)NH2","Histidine-HCl 2 mg/mL, Storage Condition B (25° C./60% RH), Day 28",98.9%
same,"Percent Purity of [Glu^22,25, Leu^23,28,31, Aib^29, Lys^26,30]hPTHrP(1-34)NH2","Histidine-HCl 2 mg/mL, Storage Condition B (25° C./60% RH), Initial",99.0%
same,"Percent Purity of [Glu^22,25, Leu^23,28,31, Aib^29, Lys^26,30]hPTHrP(1-34)NH2","Histidine-HCl 3.3 mg/mL, Storage Condition A (40° C./96% RH), Day 1",98.6%
same,"Percent Purity of [Glu^22,25, Leu^23,28,31, Aib^29, Lys^26,30]hPTHrP(1-34)NH2","Histidine-HCl 3.3 mg/mL, Storage Condition A (40° C./96% RH), Day 3",97.8%
same,"Percent Purity of [Glu^22,25, Leu^23,28,31, Aib^29, Lys^26,30]hPTHrP(1-34)NH2","Histidine-HCl 3.3 mg/mL, Storage Condition A (40° C./96% RH), Day 7",93.5%
same,"Percent Purity of [Glu^22,25, Leu^23,28,31, Aib^29, Lys^26,30]hPTHrP(1-34)NH2","Histidine-HCl 3.3 mg/mL, Storage Condition A (40° C./96% RH), Day 14",58.3%
same,"Percent Purity of [Glu^22,25, Leu^23,28,31, Aib^29, Lys^26,30]hPTHrP(1-34)NH2","Histidine-HCl 3.3 mg/mL, Storage Condition A (40° C./96% RH), Day 21, the sample for analysis contained insoluble impurities",78.2^(a) percent
same,"Percent Purity of [Glu^22,25, Leu^23,28,31, Aib^29, Lys^26,30]hPTHrP(1-34)NH2","Histidine-HCl 3.3 mg/mL, Storage Condition A (40° C./96% RH), Initial",99.3%
same,"Percent Purity of [Glu^22,25, Leu^23,28,31, Aib^29, Lys^26,30]hPTHrP(1-34)NH2","Histidine-HCl 3.3 mg/mL, Storage Condition B (25° C./60% RH), 2 months",98.5%
same,"Percent Purity of [Glu^22,25, Leu^23,28,31, Aib^29, Lys^26,30]hPTHrP(1-34)NH2","Histidine-HCl 3.3 mg/mL, Storage Condition B (25° C./60% RH), Day 3",98.9%
same,"Percent Purity of [Glu^22,25, Leu^23,28,31, Aib^29, Lys^26,30]hPTHrP(1-34)NH2","Histidine-HCl 3.3 mg/mL, Storage Condition B (25° C./60% RH), Day 7",98.8%
same,"Percent Purity of [Glu^22,25, Leu^23,28,31, Aib^29, Lys^26,30]hPTHrP(1-34)NH2","Histidine-HCl 3.3 mg/mL, Storage Condition B (25° C./60% RH), Day 14",98.9%
same,"Percent Purity of [Glu^22,25, Leu^23,28,31, Aib^29, Lys^26,30]hPTHrP(1-34)NH2","Histidine-HCl 3.3 mg/mL, Storage Condition B (25° C./60% RH), Day 28",98.8%
